# Experimental data as given in patent publication US20200054671A1, “TREATMENT OF ANXIETY DISORDER AND AUGMENTATION OF ANTI-ANXIETY INTERVENTIONS BY ADMINISTRATION OF NOBLE GAS CONTAINING MIXTURES” (NOBILIS THERAPEUTICS, INC., priority 2016, published 2020).
# Assays:
# [1] = tested on: patients with panic disorder; test: Zung Self-Rating Anxiety Scale (SAS); type: in vivo, human
# Description: (§1) This investigator-initiated study was performed under a prospective clinical trial protocol approved by the Institute of Mental Health and Addictology, which is accredited by the Ministry of Health of the Russian Federation to conduct clinical trials (#57689). Study conduct was in compliance with all ethical standards and good clinical practice. Ninety outpatients with a diagnosis of “panic disorder» (F41.0) according to ICD-10 were enrolled through the Institute of Mental Health and Addictology. Five patients dropped out of the study due to minor side effects, predominantly lightheadedness and headaches, and 4 patients dropped out of the study for unspecified reasons. As the intention to treat analysis was not utilized due to the open label design of the study, 81 patients with PD (49 women and 32 men), mean age was 35.2 years (range […]) were studied. Patients were randomized into 2 groups: with “pure” PD (group 1) and “comorbid” PD, when it was co-diagnosed with other mental illnesses (group 2). All patients with isolated PD (Group 1, n=42) received monotherapy with xenon at the aforementioned schedule, while the majority of patients (94.9%) with PD and comorbid conditions, which were predominantly depression (group 2, n=39), in addition to xenon administration continued treatment for comorbid psychiatric disorders, which mainly consisted of antidepressants (SSRIs and SNRIs). In these patients, the reason for xenon treatment was the increase in the frequency and severity of panic attacks despite ongoing treatment with stable pharmacotherapy of at least 3 to 6 months' duration.
# (§2) Administration of xenon was performed through inhalation of xenon-oxygen mixtures that were escalated from 15%/85% to 30%/70% with titration increments of 5% per session. Each patient in the study underwent between 6 and 7 treatments with xenon-oxygen mixture. The first three sessions were carried out daily and from session 4 onward—every other day. The selected dosing regime and the composition of the gas mixtures were based on the historical evidence of safety of subanesthetic use of xenon in imaging.
# (§3) Medical grade xenon (“medksenon»®, 99.9999%, manufacturer: Atommedcenter, Moscow, Russia) and medical grade oxygen in separate containers were admixed. Mixing and administration of gases in preset concentration and volume was accomplished with the use of the medical device MAGi-AMTS1, which enables the operator to adjust the concentration of xenon in the gas mixture, and which contains the electronic flow meter with a software module that allows for such adjustments. Administration of xenon-oxygen mixture to the patient was carried out via a face mask. Patients were asked to slowly inhale, holding breath for 5 to 10 seconds; exhale into the loop and after 35-40 seconds exhale outside the contour and breath in the new portion of gas mixture. Xenon inhalation lasted from 2.5 to 4 minutes, and the xenon consumption was capped at 3.0 liters per procedure. The patients were assessed subjectively by the provider, while the vital signs (pulse, blood pressure, oxygen saturation) were continuously monitored.
# (§4) Patients were evaluated after each xenon inhalation and at 30 and 180 days after completion of treatment. To this end, we employed clinical psychopathological and clinical catamnestic methods, and psychometric scales that are widely used internationally to assess the treatment of mental disorders. Scale Assessment, Zung Self-Rating Anxiety Scale (SAS) was performed prior to starting therapy (V1), and at 1 and 6 months after treatment. According to this scale, SAS index of less than 45 points corresponds to the normal value, 45-59—to mild-to-moderate degree of anxiety, 60-74—to high degree of anxiety, more than 75—to an extremely high-level of anxiety. […]
# [2] = tested on: patients with panic disorder; test: Clinical Global Impression Scale, severity of the disease subscale (CGI-S); type: in vivo, human
# Description: as §1, §2, §3, §4
# NMDA receptor = NMDA receptor (Homo sapiens, UniProt Q05586); details: glycine site of the NMDA receptor; cited from earlier work
# [3] = «Pure PD» (n = 42), total given 39
smiles,measurement,setting,value
[Xe] [xenon],"Zung SAS after 1 month − V1, mean paired difference",[1]; Group 1 (n=42),−36.131
same,"Zung SAS after 6 months − V1, mean paired difference",[1]; Group 1 (n=42),−38.214
same,SAS total score,"[1]; Group 1, one month after treatment",36.5 points
same,SAS total score,"[1]; Group 1, study follow up (6 months)",34.5
same,"Zung SAS after 1 month − V1, mean paired difference",[1]; Group 2 (n=39),−17.308
same,"Zung SAS after 6 months − V1, mean paired difference",[1]; Group 2 (n=39),−16.154
same,SAS total score,"[1]; Group 2, one month after treatment",46.8 points
same,SAS total score,"[1]; Group 2, study follow up (6 months)",47.9
same,"CGI-S, V2: Moderately expressed disease, share of patients","[2]; Comorbid PD (n = 39), total 42",2.4%
same,"CGI-S, V2: Serious disease, share of patients","[2]; Comorbid PD (n = 39), total 42",4.8%
same,"CGI-S, V2: Significantly expressed disease, share of patients","[2]; Comorbid PD (n = 39), total 42",92.9%
same,"CGI-S, V3: Significantly expressed disease, share of patients","[2]; Comorbid PD (n = 39), total 42",88.1%
same,"CGI-S, V4: Moderately expressed disease, share of patients","[2]; Comorbid PD (n = 39), total 42",52.4%
same,"CGI-S, V4: Significantly expressed disease, share of patients","[2]; Comorbid PD (n = 39), total 42",.0%
same,"CGI-S, V4: Weakly expressed disease, share of patients","[2]; Comorbid PD (n = 39), total 42",47.6%
same,"CGI-S, V5: Borderline state, share of patients","[2]; Comorbid PD (n = 39), total 42",14.3%
same,"CGI-S, V5: Moderately expressed disease, share of patients","[2]; Comorbid PD (n = 39), total 42",.0%
same,"CGI-S, V5: Significantly expressed disease, share of patients","[2]; Comorbid PD (n = 39), total 42",.0%
same,"CGI-S, V5: Weakly expressed disease, share of patients","[2]; Comorbid PD (n = 39), total 42",85.7%
same,"CGI-S, V6: Normal state, share of patients","[2]; Comorbid PD (n = 39), total 42",11.9%
same,"CGI-S, V6: Weakly expressed disease, share of patients","[2]; Comorbid PD (n = 39), total 42",.0%
same,"CGI-S, V3: Moderately expressed disease, share of patients","[2]; Comorbid PD (n = 39), total 42, after the third procedure",11.9%
same,"CGI-S, V6: Borderline state, share of patients","[2]; Comorbid PD (n = 39), total 42, upon completion of xenon treatments",88.1%
same,"CGI-S, V2: Moderately expressed disease, share of patients",[2]; Total (n = 81),24.7%
same,"CGI-S, V2: Serious disease, share of patients",[2]; Total (n = 81),2.5%
same,"CGI-S, V2: Significantly expressed disease, share of patients",[2]; Total (n = 81),72.8%
same,"CGI-S, V3: Moderately expressed disease, share of patients",[2]; Total (n = 81),29.6%
same,"CGI-S, V3: Significantly expressed disease, share of patients",[2]; Total (n = 81),70.4%
same,"CGI-S, V4: Moderately expressed disease, share of patients",[2]; Total (n = 81),51.9%
same,"CGI-S, V4: Significantly expressed disease, share of patients",[2]; Total (n = 81),23.5%
same,"CGI-S, V4: Weakly expressed disease, share of patients",[2]; Total (n = 81),24.7%
same,"CGI-S, V5: Borderline state, share of patients",[2]; Total (n = 81),7.4%
same,"CGI-S, V5: Moderately expressed disease, share of patients",[2]; Total (n = 81),45.7%
same,"CGI-S, V5: Significantly expressed disease, share of patients",[2]; Total (n = 81),1.2%
same,"CGI-S, V5: Weakly expressed disease, share of patients",[2]; Total (n = 81),45.7%
same,"CGI-S, V6: Borderline state, share of patients",[2]; Total (n = 81),85.2%
same,"CGI-S, V6: Normal state, share of patients",[2]; Total (n = 81),6.2%
same,"CGI-S, V6: Weakly expressed disease, share of patients",[2]; Total (n = 81),8.6%
same,"CGI-S, V2: Moderately expressed disease, share of patients",[2]; [3],48.7%
same,"CGI-S, V2: Serious disease, share of patients",[2]; [3],.0%
same,"CGI-S, V2: Significantly expressed disease, share of patients",[2]; [3],51.3%
same,"CGI-S, V3: Significantly expressed disease, share of patients",[2]; [3],51.3%
same,"CGI-S, V4: Moderately expressed disease, share of patients",[2]; [3],51.3%
same,"CGI-S, V4: Significantly expressed disease, share of patients",[2]; [3],48.7%
same,"CGI-S, V4: Weakly expressed disease, share of patients",[2]; [3],.0%
same,"CGI-S, V5: Borderline state, share of patients",[2]; [3],.0%
same,"CGI-S, V5: Moderately expressed disease, share of patients",[2]; [3],94.9%
same,"CGI-S, V5: Significantly expressed disease, share of patients",[2]; [3],2.6%
same,"CGI-S, V5: Weakly expressed disease, share of patients",[2]; [3],2.6%
same,"CGI-S, V6: Normal state, share of patients",[2]; [3],.0%
same,"CGI-S, V6: Weakly expressed disease, share of patients",[2]; [3],17.9%
same,"CGI-S, V3: Moderately expressed disease, share of patients","[2]; «Pure PD» (n = 42), total given 39, after the third procedure",48.7%
same,"CGI-S, V6: Borderline state, share of patients","[2]; «Pure PD» (n = 42), total given 39, upon completion of xenon treatments",82.1%
same,mechanism of inhibition of NMDA receptor activity,NMDA receptor,competitive inhibition of the co-agonist glycine
